ChEMBL document CHEMBL1201862, “PubChem BioAssay data set” (2004)
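The compound was tested at five concentrations on cells cultured in 96-well plates, with a 48-hour exposure period. Abbreviation: GI50, concentration required for 50% inhibition of growth.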 The source made the active and inactive calls. Cut-off read from the data, not from the text of the source: active = GI50 up to about 1.1 µM and inactive = higher. Peptide text beside a SMILES is read from it. * marks the point of attachment. Boc = CC(C)(C)OC(=O)*

Assays:
Experiment in all cases: NCI tumour cell line growth inhibition, 48 h
[1] = system: SR
[2] = system: SK-MEL-28
[3] = system: NCI-H522
[4] = system: T47D
[5] = system: A549
[6] = system: ACHN
[7] = system: MDA-MB-231
[8] = system: COLO 205
[9] = system: EKVX
[10] = system: SNB-75
[11] = system: MDA-N
[12] = system: BT-549
[13] = system: KM12
[14] = system: SK-OV-3
[15] = system: UACC-62
[16] = system: HT-29
[17] = system: SF-268
[18] = system: K562
[19] = system: HOP-92

Structure (SMILES)	GI50 [1]	GI50 [2]	GI50 [3]	GI50 [4]	GI50 [5]	GI50 [6]	GI50 [7]	GI50 [8]	GI50 [9]	GI50 [10]	GI50 [11]	GI50 [12]	GI50 [13]	GI50 [14]	GI50 [15]	GI50 [16]	GI50 [17]	GI50 [18]	GI50 [19]
NC(=O)c1nnsc1N/N=C/c1ccc([N+](=O)[O-])cc1	33.9 µM (inactive)	> 100 µM (inactive)	> 100 µM (inactive)	> 100 µM (inactive)	> 100 µM (inactive)	> 100 µM (inactive)	> 100 µM (inactive)	> 100 µM (inactive)	> 100 µM (inactive)	> 100 µM (inactive)	> 100 µM (inactive)	19.7 µM (inactive)	> 100 µM (inactive)	> 100 µM (inactive)	> 100 µM (inactive)	> 100 µM (inactive)	> 100 µM (inactive)	> 100 µM (inactive)	–
Cc1cc(S(=O)(=O)O)ccc1/N=N/c1ccc(/N=N/c2c(O)ccc3ccccc23)c(C)c1	–	67.3 µM (inactive)	26 µM (inactive)	> 100 µM (inactive)	50.4 µM (inactive)	92.9 µM (inactive)	20.5 µM (inactive)	> 100 µM (inactive)	82 µM (inactive)	41.6 µM (inactive)	50.1 µM (inactive)	> 100 µM (inactive)	31.6 µM (inactive)	> 100 µM (inactive)	28.8 µM (inactive)	70.3 µM (inactive)	55.3 µM (inactive)	> 100 µM (inactive)	46.7 µM (inactive)
COC(=O)c1c(C)[n+]([O-])c2cc(Cl)c(Cl)cc2[n+]1[O-]	6.17 µM (inactive)	27.4 µM (inactive)	10.1 µM (inactive)	15.8 µM (inactive)	8.07 µM (inactive)	15.8 µM (inactive)	19.4 µM (inactive)	12.2 µM (inactive)	19.5 µM (inactive)	–	19.5 µM (inactive)	22.6 µM (inactive)	11.2 µM (inactive)	12.9 µM (inactive)	15 µM (inactive)	18.7 µM (inactive)	23.4 µM (inactive)	32.2 µM (inactive)	–
CC(Cl)CC(=O)OCC1CCCN2CCCCC12 (stereo not drawn)	–	> 100 µM (inactive)	–	> 100 µM (inactive)	> 100 µM (inactive)	> 100 µM (inactive)	> 100 µM (inactive)	> 100 µM (inactive)	> 100 µM (inactive)	> 100 µM (inactive)	> 100 µM (inactive)	> 100 µM (inactive)	> 100 µM (inactive)	> 100 µM (inactive)	> 100 µM (inactive)	> 100 µM (inactive)	> 100 µM (inactive)	> 100 µM (inactive)	> 100 µM (inactive)
O=C(Nc1ccccc1)Nn1c(-c2cccs2)nc2ccc(I)cc2c1=O	16.8 µM (inactive)	20.5 µM (inactive)	14.3 µM (inactive)	3.33 µM (inactive)	19.2 µM (inactive)	27.5 µM (inactive)	–	21.4 µM (inactive)	20.9 µM (inactive)	2.74 µM (inactive)	23.2 µM (inactive)	10.5 µM (inactive)	31.3 µM (inactive)	20.9 µM (inactive)	28.7 µM (inactive)	25.9 µM (inactive)	30.4 µM (inactive)	0.022 µM (active)	6.3 µM (inactive)
CCc1n[nH]c(=O)[nH]1	> 100 µM (inactive)	–	> 100 µM (inactive)	> 100 µM (inactive)	> 100 µM (inactive)	> 100 µM (inactive)	> 100 µM (inactive)	> 100 µM (inactive)	> 100 µM (inactive)	> 100 µM (inactive)	> 100 µM (inactive)	> 100 µM (inactive)	> 100 µM (inactive)	> 100 µM (inactive)	> 100 µM (inactive)	> 100 µM (inactive)	> 100 µM (inactive)	> 100 µM (inactive)	–
O=C(Nc1ccccc1)Oc1ccc(C(=S)Nc2ccc(Br)cc2)cc1	13.4 µM (inactive)	19.4 µM (inactive)	11 µM (inactive)	22.2 µM (inactive)	–	23.3 µM (inactive)	–	17.2 µM (inactive)	5.13 µM (inactive)	–	18.9 µM (inactive)	12.8 µM (inactive)	12.8 µM (inactive)	34.5 µM (inactive)	11 µM (inactive)	16.8 µM (inactive)	16.4 µM (inactive)	21.5 µM (inactive)	–
CCOC(=O)N[C@H]1CCc2cc(OC)c(OC)c(OC)c2-c2ccc(SC)c(=O)cc21	< 0.01 µM (active)	0.746 µM (active)	< 0.01 µM (active)	> 54.6 µM (inactive)	< 0.01 µM (active)	< 0.01 µM (active)	–	< 0.01 µM (active)	29.9 µM (inactive)	< 0.0434 µM (active)	< 0.01 µM (active)	< 0.01 µM (active)	< 0.01 µM (active)	–	< 0.01 µM (active)	< 0.01 µM (active)	< 0.01 µM (active)	< 0.01 µM (active)	< 0.01 µM (active)
COc1ccc2c(c1)c1nn(CCN(C)C)c3ccc4c(=O)n(CCN(C)C)c(=O)n2c4c13	< 0.01 µM (active)	0.22 µM (active)	< 0.01 µM (active)	0.144 µM (active)	< 0.01 µM (active)	< 0.01 µM (active)	0.0211 µM (active)	< 0.0143 µM (active)	0.0746 µM (active)	< 0.01 µM (active)	< 0.0325 µM (active)	0.946 µM (active)	< 0.0142 µM (active)	< 0.0157 µM (active)	0.116 µM (active)	< 0.01 µM (active)	< 0.01 µM (active)	< 0.019 µM (active)	–
CCOC(=O)c1cc2nc3ccccc3c(=O)n2c2ccccc12	–	> 10 µM (inactive)	> 10 µM (inactive)	> 10 µM (inactive)	> 10 µM (inactive)	> 10 µM (inactive)	> 10 µM (inactive)	> 10 µM (inactive)	> 10 µM (inactive)	6.32 µM (inactive)	> 10 µM (inactive)	> 10 µM (inactive)	> 10 µM (inactive)	> 10 µM (inactive)	> 10 µM (inactive)	> 10 µM (inactive)	> 10 µM (inactive)	> 10 µM (inactive)	> 10 µM (inactive)
COC(=O)C(Cc1c[nH]c2ccccc12)NC(=O)C(Cc1c[nH]c2ccccc12)NC(=O)C(Cc1c[nH]c2ccccc12)NC(=O)C(Cc1c[nH]c2ccccc12)NC(=O)C(Cc1c[nH]c2ccccc12)NC(=O)OC(C)(C)C (stereo not drawn) (Boc-WWWWW-OMe; configuration not given here)	32.4 µM (inactive)	55.7 µM (inactive)	46 µM (inactive)	10.7 µM (inactive)	67 µM (inactive)	74 µM (inactive)	> 100 µM (inactive)	–	–	36.5 µM (inactive)	92 µM (inactive)	91.8 µM (inactive)	–	–	26.5 µM (inactive)	> 100 µM (inactive)	71 µM (inactive)	36.8 µM (inactive)	–
CC(C)(C)OC[C@H](O)CC#N	> 100 µM (inactive)	> 100 µM (inactive)	–	> 100 µM (inactive)	> 100 µM (inactive)	> 100 µM (inactive)	> 100 µM (inactive)	> 100 µM (inactive)	> 100 µM (inactive)	> 100 µM (inactive)	> 100 µM (inactive)	> 100 µM (inactive)	> 100 µM (inactive)	> 100 µM (inactive)	> 100 µM (inactive)	> 100 µM (inactive)	> 100 µM (inactive)	> 100 µM (inactive)	–
CCOC(=O)n1c2ccccc2c(=O)n1CCO	> 100 µM (inactive)	> 100 µM (inactive)	> 100 µM (inactive)	7.45 µM (inactive)	> 100 µM (inactive)	> 100 µM (inactive)	> 100 µM (inactive)	> 100 µM (inactive)	> 100 µM (inactive)	28.8 µM (inactive)	> 100 µM (inactive)	> 100 µM (inactive)	> 100 µM (inactive)	> 100 µM (inactive)	> 100 µM (inactive)	> 100 µM (inactive)	> 100 µM (inactive)	> 100 µM (inactive)	–
CN1CCCCC1CCN1CCCCC1 (stereo not drawn)	–	> 100 µM (inactive)	> 100 µM (inactive)	> 100 µM (inactive)	> 100 µM (inactive)	> 100 µM (inactive)	> 100 µM (inactive)	56.4 µM (inactive)	> 100 µM (inactive)	> 100 µM (inactive)	> 100 µM (inactive)	> 100 µM (inactive)	> 100 µM (inactive)	> 100 µM (inactive)	> 100 µM (inactive)	> 100 µM (inactive)	> 100 µM (inactive)	> 100 µM (inactive)	> 100 µM (inactive)
C#CCN(Cc1ccc2[nH]c(N)nc(=O)c2c1)c1ccc(C(=O)NC(CCC(=O)O)C(=O)O)cc1 (stereo not drawn)	> 100 µM (inactive)	> 100 µM (inactive)	–	9.35 µM (inactive)	53.5 µM (inactive)	3.82 µM (inactive)	> 100 µM (inactive)	12 µM (inactive)	> 100 µM (inactive)	–	> 100 µM (inactive)	8.11 µM (inactive)	> 100 µM (inactive)	> 100 µM (inactive)	–	> 100 µM (inactive)	17.5 µM (inactive)	–	28.7 µM (inactive)
COc1ccc(N2C(=O)C3c4[nH]c5cc(Cl)ccc5c4C4CCC(C(C)(C)C)CC4C3C2=O)cc1 (stereo not drawn)	12.6 µM (inactive)	> 100 µM (inactive)	> 100 µM (inactive)	66.4 µM (inactive)	60.7 µM (inactive)	61.1 µM (inactive)	> 100 µM (inactive)	> 100 µM (inactive)	59.2 µM (inactive)	> 100 µM (inactive)	> 100 µM (inactive)	> 100 µM (inactive)	65.8 µM (inactive)	> 100 µM (inactive)	> 100 µM (inactive)	31.7 µM (inactive)	> 100 µM (inactive)	33.6 µM (inactive)	–
